Consider nine compounds from paper PMC2774722 (Clinical cancer research : an official journal of the …, 2009).

Series [1] addresses T1, ABCC2 (Homo sapiens, UniProt Q92887). The series is described as follows: Inhibition of ABCC2-mediated docetaxel efflux. The series is classed as cell-based. As to conditions: for Inhibition of docetaxel efflux: 20 μM sorafenib or sunitinib, or 50 μM MK571, 5 μM docetaxel, 4 h, cells overexpressing ABCC2.
Series [2] has as its target T2, ABCC4 (Homo sapiens, UniProt O15439).
T2 sequence (O15439 1-1325): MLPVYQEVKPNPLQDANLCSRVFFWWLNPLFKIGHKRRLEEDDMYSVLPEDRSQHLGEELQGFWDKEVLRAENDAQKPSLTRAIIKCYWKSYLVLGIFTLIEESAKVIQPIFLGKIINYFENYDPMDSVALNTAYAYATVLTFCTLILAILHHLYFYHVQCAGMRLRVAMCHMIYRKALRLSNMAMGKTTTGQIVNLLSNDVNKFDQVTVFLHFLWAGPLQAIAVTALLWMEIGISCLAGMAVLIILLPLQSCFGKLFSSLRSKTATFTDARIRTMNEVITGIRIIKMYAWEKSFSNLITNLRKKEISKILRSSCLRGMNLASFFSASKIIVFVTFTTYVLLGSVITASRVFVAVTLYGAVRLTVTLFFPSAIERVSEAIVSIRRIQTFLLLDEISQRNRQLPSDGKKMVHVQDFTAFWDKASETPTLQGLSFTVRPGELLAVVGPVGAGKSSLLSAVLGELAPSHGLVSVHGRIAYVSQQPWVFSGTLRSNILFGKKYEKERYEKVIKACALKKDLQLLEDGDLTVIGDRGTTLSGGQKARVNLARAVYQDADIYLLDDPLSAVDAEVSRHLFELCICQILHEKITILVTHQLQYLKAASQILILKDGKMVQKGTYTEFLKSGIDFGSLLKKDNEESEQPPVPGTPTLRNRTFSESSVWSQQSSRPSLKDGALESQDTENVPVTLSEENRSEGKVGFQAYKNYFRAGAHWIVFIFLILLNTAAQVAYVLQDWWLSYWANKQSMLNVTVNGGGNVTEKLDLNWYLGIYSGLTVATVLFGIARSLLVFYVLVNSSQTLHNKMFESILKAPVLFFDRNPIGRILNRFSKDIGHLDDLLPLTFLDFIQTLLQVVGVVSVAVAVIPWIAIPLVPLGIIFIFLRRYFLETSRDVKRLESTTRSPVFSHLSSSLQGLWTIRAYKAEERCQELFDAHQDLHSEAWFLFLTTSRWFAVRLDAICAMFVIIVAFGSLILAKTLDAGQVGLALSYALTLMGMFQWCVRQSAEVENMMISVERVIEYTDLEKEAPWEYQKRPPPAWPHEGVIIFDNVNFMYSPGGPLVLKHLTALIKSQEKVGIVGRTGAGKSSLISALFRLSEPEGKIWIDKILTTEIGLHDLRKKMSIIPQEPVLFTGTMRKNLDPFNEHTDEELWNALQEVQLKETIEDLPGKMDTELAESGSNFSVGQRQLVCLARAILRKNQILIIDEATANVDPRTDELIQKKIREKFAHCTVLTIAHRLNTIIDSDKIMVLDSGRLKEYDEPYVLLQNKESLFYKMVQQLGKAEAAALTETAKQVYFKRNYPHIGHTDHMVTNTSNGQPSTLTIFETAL
Briefly: Inhibition of ABCC4-mediated PMEA efflux in Saos-2 cells. The format is cell-based. As to conditions: for Inhibition of PMEA efflux: 20 μM sorafenib or sunitinib, or 50 μM MK571, 4 h, cells overexpressing ABCC4.

Series [3] in a line: Brain penetration and brain concentration in mice. The format is in vivo.
Series [4] relates to Abcb1. The settings on record: brain concentration at 4 h / plasma AUC0-4h; oral sorafenib 40 mg/kg or sunitinib 20 mg/kg.
Series [5] deals with T2, ABCC4. Briefly: Accumulation in Saos-2 cells overexpressing ABCC4. The format is in vitro ADME. As to conditions: 1 μM, 4 h.
Series [6] concerns the target ABCG2 (Homo sapiens, UniProt Q9UNQ0). The settings on record: 1 μM, 4 h, Saos-2 cells.
For series [7], the system named is acute myelogenous leukemia. As to conditions: sorafenib with cytarabine/idarubicin, cited from earlier work.
For series [8], the target named is T3, ABCB1 (Homo sapiens, UniProt P08183). Briefly: Inhibition of calcein-AM efflux in LLC-PK1 cells expressing ABCB1. The format is cell-based.
T3 sequence (P08183 whole entry): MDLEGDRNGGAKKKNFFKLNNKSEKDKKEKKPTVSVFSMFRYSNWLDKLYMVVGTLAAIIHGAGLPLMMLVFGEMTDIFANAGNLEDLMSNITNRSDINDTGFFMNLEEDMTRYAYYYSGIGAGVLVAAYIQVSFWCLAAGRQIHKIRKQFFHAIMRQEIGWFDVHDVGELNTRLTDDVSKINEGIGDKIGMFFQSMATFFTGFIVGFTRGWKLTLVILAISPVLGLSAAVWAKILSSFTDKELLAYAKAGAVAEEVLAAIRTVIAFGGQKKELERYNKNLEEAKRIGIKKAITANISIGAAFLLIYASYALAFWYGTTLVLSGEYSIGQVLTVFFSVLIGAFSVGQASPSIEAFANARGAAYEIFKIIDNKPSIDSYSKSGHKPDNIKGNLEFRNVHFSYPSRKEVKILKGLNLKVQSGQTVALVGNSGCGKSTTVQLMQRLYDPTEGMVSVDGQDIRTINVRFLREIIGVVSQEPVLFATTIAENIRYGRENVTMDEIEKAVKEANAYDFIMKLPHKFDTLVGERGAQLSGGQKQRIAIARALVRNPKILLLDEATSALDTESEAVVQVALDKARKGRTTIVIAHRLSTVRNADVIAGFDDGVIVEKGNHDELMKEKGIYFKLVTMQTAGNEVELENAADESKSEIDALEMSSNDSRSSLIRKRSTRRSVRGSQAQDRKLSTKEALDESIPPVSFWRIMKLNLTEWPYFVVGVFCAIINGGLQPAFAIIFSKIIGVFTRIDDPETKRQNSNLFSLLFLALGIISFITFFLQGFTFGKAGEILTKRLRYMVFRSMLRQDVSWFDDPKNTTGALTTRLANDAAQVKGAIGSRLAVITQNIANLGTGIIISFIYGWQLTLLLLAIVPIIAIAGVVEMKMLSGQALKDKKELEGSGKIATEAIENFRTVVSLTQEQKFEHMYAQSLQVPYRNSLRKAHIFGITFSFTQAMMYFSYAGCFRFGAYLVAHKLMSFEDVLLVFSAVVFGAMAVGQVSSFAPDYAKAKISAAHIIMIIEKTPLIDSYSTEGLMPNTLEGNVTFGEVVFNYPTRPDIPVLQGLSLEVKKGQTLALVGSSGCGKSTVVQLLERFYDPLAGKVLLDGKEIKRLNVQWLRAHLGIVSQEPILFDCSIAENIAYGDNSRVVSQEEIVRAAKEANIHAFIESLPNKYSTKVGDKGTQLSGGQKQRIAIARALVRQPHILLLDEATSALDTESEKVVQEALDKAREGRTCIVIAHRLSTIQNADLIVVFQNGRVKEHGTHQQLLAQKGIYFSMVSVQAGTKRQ
Series [9] concerns the target T1, ABCC2. The series is described as follows: Vanadate sensitive ATPase assay of ABCC2 in membrane vesicles. The series is classed as biochemical. The settings on record: activation test, 0.14-300 μM, 10 min, concentration dependent.
Series [10] concerns Abcb1. As to conditions: single oral dose, sorafenib 40 mg/kg or sunitinib 20 mg/kg.
For series [11], the system named is OATP1A2, OATP1B1, OATP1B3, OCT1, OAT2, OCTN1 and OCTN2. The settings on record: oocytes or HEK293 cells; sorafenib 0.35-1.5 μM or sunitinib 0.15-0.45 μM, 1 h.
Series [12] addresses T1, ABCC2. Briefly: Accumulation in MDCKII cells overexpressing ABCC2. The settings on record: 1 μM, 4 h. The series is classed as in vitro ADME.
Series [13] has as its target T3, ABCB1. Briefly: Transcellular transport in LLC-PK1 cells expressing ABCB1. The series is classed as in vitro ADME. The settings on record: 10 μM, LLC-PK1 cells overexpressing ABCB1.
The subject of series [14] is Abcb1. As to conditions: Abcb1 knockout mice; ref [6], [44]; cited from earlier work.
The conditions of series [15]: wild-type murine models, cited from earlier work.
In the next series the test system is Abcb1 and Abcg2. The settings on record: mice lacking both Abcb1 and Abcg2; ref [6], [44]; cited from earlier work.
Series [16] deals with ABCB1. As to conditions: ref [38]; cited from earlier work.
The next series deals with T4, OCTN2 (Homo sapiens, UniProt O76082).
T4 sequence (O76082 1-557): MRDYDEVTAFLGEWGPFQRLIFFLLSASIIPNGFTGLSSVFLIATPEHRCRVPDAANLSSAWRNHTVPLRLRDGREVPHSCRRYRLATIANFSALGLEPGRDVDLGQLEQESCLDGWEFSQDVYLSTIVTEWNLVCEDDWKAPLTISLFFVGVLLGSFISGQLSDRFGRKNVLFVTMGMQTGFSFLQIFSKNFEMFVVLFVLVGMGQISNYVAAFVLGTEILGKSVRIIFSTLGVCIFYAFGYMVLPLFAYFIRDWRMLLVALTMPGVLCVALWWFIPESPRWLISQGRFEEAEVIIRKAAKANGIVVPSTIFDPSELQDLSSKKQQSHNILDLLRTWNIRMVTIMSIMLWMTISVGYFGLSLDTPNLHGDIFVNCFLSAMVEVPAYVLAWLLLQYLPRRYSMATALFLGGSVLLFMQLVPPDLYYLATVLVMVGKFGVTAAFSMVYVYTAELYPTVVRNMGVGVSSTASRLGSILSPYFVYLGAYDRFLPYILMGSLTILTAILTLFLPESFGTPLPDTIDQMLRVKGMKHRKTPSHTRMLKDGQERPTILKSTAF
Briefly: Uptake in HEK293 cells overexpressing OCTN2. The series is classed as in vitro ADME. As to conditions: HEK293 cells expressing OCTN2, 1 h.

Series [17] concerns ABCG2. The settings on record: ref [38]; cited from earlier work.
The conditions of series [18]: ref [39], cited from earlier work.
The next series deals with ABCB1 or ABCC2. The settings on record: mice lacking one or both transporters (ABCB1, ABCC2); ref [40]; cited from earlier work.
In series [19] the test system is Abcb1. The settings on record: mice lacking ABCB1; ref [42]; cited from earlier work.
The test system of a further series is CYP3a. The settings on record: CYP3a-/- knockout mice; ref [43]; cited from earlier work.
The mark [20] stands for this setting: 38 patients with newly diagnosed AML.

pIC50: −log10 of the molar value. “And” between values parts separate entries of the source, which are not always exact repeats. Equal values may be shown once. Read-outs that look alike come from different tables or passages of the source.

T1 sequence (Q92887 whole entry): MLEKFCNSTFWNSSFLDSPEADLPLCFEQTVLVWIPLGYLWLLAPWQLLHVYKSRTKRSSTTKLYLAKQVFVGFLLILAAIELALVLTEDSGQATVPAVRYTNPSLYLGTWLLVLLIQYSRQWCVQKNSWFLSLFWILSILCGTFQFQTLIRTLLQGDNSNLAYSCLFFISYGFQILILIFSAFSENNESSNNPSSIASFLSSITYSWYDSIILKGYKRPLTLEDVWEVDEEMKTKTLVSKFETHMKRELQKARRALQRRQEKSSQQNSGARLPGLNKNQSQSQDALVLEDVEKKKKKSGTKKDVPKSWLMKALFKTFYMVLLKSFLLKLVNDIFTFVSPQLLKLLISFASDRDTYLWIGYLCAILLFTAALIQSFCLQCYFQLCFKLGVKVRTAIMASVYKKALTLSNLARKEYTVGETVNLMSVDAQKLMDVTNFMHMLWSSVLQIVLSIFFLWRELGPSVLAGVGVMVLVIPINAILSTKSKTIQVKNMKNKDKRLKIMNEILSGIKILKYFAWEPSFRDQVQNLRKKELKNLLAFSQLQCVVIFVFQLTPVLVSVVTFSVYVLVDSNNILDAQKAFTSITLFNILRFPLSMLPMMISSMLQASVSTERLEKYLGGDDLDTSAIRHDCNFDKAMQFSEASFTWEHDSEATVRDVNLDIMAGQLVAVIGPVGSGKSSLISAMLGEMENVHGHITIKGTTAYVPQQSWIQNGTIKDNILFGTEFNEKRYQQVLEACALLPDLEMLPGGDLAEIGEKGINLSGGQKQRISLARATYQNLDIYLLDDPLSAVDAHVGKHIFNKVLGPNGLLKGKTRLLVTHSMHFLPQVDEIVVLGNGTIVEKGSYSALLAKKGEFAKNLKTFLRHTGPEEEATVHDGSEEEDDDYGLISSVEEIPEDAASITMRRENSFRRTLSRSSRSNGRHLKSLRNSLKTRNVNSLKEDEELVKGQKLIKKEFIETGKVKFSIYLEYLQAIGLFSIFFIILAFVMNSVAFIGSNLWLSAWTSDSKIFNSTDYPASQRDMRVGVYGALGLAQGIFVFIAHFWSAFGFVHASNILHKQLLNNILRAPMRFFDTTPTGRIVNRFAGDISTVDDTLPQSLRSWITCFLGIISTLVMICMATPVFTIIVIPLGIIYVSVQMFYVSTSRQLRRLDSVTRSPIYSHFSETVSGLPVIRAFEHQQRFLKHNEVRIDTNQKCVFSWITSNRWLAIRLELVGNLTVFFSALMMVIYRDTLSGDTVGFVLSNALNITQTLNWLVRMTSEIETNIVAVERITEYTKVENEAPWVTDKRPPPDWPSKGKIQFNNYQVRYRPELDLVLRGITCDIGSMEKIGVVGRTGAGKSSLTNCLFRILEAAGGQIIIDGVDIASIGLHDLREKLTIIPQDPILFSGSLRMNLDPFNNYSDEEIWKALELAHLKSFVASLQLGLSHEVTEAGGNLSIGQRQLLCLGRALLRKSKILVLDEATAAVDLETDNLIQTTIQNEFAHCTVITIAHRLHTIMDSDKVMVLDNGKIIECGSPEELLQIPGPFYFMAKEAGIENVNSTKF
Chain of ABCG2 (Homo sapiens, UniProt Q9UNQ0) (Q9UNQ0 whole entry): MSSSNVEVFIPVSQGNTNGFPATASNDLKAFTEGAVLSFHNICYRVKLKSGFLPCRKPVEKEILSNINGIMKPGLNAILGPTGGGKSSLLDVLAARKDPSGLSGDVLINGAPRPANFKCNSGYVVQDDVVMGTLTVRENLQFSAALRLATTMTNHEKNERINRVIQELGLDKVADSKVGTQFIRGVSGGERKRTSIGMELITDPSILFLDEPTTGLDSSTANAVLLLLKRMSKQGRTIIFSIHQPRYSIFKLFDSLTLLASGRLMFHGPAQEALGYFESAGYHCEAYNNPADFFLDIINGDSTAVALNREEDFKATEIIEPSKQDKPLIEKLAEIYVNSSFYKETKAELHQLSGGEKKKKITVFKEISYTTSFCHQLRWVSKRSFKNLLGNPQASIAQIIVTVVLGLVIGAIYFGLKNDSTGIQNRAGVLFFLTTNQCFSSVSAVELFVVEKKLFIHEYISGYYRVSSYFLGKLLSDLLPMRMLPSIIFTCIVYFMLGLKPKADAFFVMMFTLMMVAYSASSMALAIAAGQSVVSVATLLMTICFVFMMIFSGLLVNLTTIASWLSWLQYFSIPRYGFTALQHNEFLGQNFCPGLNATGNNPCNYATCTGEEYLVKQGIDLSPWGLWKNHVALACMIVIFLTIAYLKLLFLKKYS

With `CN(C)C(=O)CCSC(SCCC(=O)O)c1cccc(/C=C/c2ccc3ccc(Cl)cc3n2)c1` (stereo not drawn) [MK571], the “Inhibition of docetaxel efflux” value on ABCC2 [1] is listed as “approximately 90%”. The “Inhibition of PMEA efflux” value at ABCC4 [2] is listed as around 100%.
As to `CNC(=O)c1cc(Oc2ccc(NC(=O)Nc3ccc(Cl)c(C(F)(F)F)c3)cc2)ccn1` [sorafenib], the concentration at 4 h in series [3] (FVB, mouse, brain, po, 40 mg/kg) is ~300 ng/mL and 645 nM. The same compound registered a Brain penetration in series [3] (wild-type mice, brain concentration at 4 h / plasma AUC0-4h, oral sorafenib 40 mg/kg or sunitinib 20 mg/kg) of 3%. Moreover, on ABCC2 [1] (read-out: Inhibition of docetaxel efflux), the inhibition (in general, the percentage by which the read-out fell short of the control) at 20 µM is around 50%. Also, the “Increase in brain penetration in knockout animals versus controls” value in the series on Abcb1 [4] was found to be 1.9 fold. Moreover, the “Transport by ABCC4” value at ABCC4 [5] is listed as “not transported”. Besides, the “Transport by ABCG2” value at ABCG2 [6] is “not transported”. Further, in [7] (setting [20]), the Overall response rate is listed as 83% and the “Patients achieving a complete response” value is 70%. Besides, in [7] (at 9 months follow-up), the Probability of survival is 82% and the Remission duration was 72%. Moreover, the inhibition at 20 µM at ABCC4 [2] (SAOS-2, read-out: Inhibition of PMEA efflux) is around 70%. For the same compound, at ABCB1 [8], the pIC50 (in general, the negative decadic logarithm of the IC50, by convention in mol/L) is 4.78. Also, the “Effect on baseline ATPase activity of ABCC2” value on ABCC2 [9] is “inhibited”. For the same compound, the “Plasma AUC0-4h, wild type versus Abcb1 knockout mice” value in the series with Abcb1 [10] is reported as “not significantly different”. Besides, in [11], the “Transport (uptake) by solute carriers compared to control” value is “none of the transporters tested facilitated”. In addition, the “Transport by ABCC2” value on ABCC2 [12] is reported as “not transported”. For the same compound, on ABCB1 [13], the “Transport by ABCB1” value was “not transported”.
Consider `Cc1ccc(NC(=O)c2ccc(CN3CCN(C)CC3)cc2)cc1Nc1nccc(-c2cccnc2)n1` [imatinib], for which the “Increase in brain penetration compared to wild-type mice” value with Abcb1 [14] is 3.6 fold; in the series on Abcb1 and Abcg2, 12.6 fold. For the same compound, the Brain penetration in [15] (ref [6], [44]) was 2-10%.
As to `CCN(CC)CCNC(=O)c1c(C)[nH]c(/C=C2\C(=O)Nc3ccc(F)cc32)c1C` [sunitinib], in the series with ABCB1 [16], the “Reversal of ABCB1-mediated resistance to romidepsin” value is listed as “partially reverse”. In addition, the “Transport over control by OCTN2” value on OCTN2 stood at 130%. Also, the “Inhibition of docetaxel efflux” value at ABCC2 [1] is reported as around 80%. The “Increase in brain penetration in knockout animals versus controls” value in the series on Abcb1 [4] stood at 2.9 fold. The “Transport by ABCG2” value at ABCG2 [6] is “not transported”. In addition, the “Inhibition of PMEA efflux” value on ABCC4 [2] is reported as around 80%. Also, the “Reversal of topotecan resistance mediated by ABCG2” value in the series on ABCG2 [17] is on record as “completely reverse”. Further, the “Plasma AUC0-4h, wild type versus Abcb1 knockout mice” value with Abcb1 [10] is reported as “not significantly different”. The “Transport (uptake) by solute carriers compared to control” value in [11] was “none of the transporters tested facilitated”. The “Transport by ABCB1” value at ABCB1 [13] was “substantially reduced”.
In the case of `CCc1c2c(nc3ccc(O)cc13)-c1cc3c(c(=O)n1C2)COC(=O)[C@]3(O)CC` [SN-38], in series [18], the “Change in plasma exposure when co-administered with sorafenib” value is “minimal to no increases”.
Consider `Cc1nc(Nc2ncc(C(=O)Nc3c(C)cccc3Cl)s2)cc(N2CCN(CCO)CC2)n1` [dasatinib], for which the Brain penetration in [15] (ref [45]) is 3-8%.
For `COc1cccc2c1C(=O)c1c(O)c3c(c(O)c1C2=O)C[C@@](O)(C(=O)CO)C[C@@H]3O[C@H]1C[C@H](N)[C@H](O)[C@H](C)O1` [doxorubicin], the “Plasma exposure compared to wild-type mice” value in the series with ABCB1 or ABCC2 is recorded as “unaltered”. Besides, the “Increase in plasma exposure in combination with sorafenib” value in [18] (phase I trial) is listed as 20-30%.
Consider `CC(=O)O[C@@]12CO[C@@H]1C[C@H](O)[C@@]1(C)C(=O)[C@H](O)C3=C(C)[C@@H](OC(=O)[C@H](O)[C@@H](NC(=O)OC(C)(C)C)c4ccccc4)C[C@@](O)([C@@H](OC(=O)c4ccccc4)[C@H]21)C3(C)C` [docetaxel], for which, in the series with Abcb1 [19], the “Plasma exposure compared to wild-type mice” value is on record as “unchanged”. Also, in the series on CYP3a, the “Exposure compared to wild-type counterparts” value is listed as “significanty increased”.
With `CCc1c2c(nc3ccc(OC(=O)N4CCC(N5CCCCC5)CC4)cc13)-c1cc3c(c(=O)n1C2)COC(=O)[C@]3(O)CC` [irinotecan], the “Change in plasma exposure when co-administered with sorafenib” value in [18] is on record as “minimal to no increases”.
